# Laboratory results published in paper PMC8648852, “Pyrazoline derivatives as promising novel antischistosomal agents” (Scientific Reports, 2021).
# Assays:
# S. mansoni adult worm = test: In vitro antischistosomal assay (viability of ex vivo adult worms); type: cell-based, Schistosoma mansoni; settings: for EC50: 72 h, ex vivo adult schistosomes, brackets = 95% confidence interval; for Death of all worms within 24 h: 25 μM; for Time until all parasites were dead: 50 μM; for Antiparasitic activity in initial screen: 50 µM, after 72 h, adult worms
# Procedure: For biological screening, S. mansoni adult parasites were isolated from the mouse infection model (parasite ex vivo) and all compounds were initially screened at 50 µM. The gold-standard antiparasitic compound praziquantel was used as a positive control and DMSO at 0.5% v/v (representing the highest concentration of solvent) served as a negative control. […] For the remaining compounds tested, no EC50 values could be calculated due to lack of activity at 50 μM. […] In tandem, our findings confirm that pyrazolines have a potent antiparasitic activity. Indeed, few compounds in the literature are active at low concentrations for review see[11],[19]. According to criteria established by the World Health Organization (WHO) for antiparasitic hits, leads, and drug candidates, at the start of a screening campaign a compound should inhibit mobility of helminths in vitro at 10 μg/mL[20], commonly ranging from 30 to 40 μM. Thus, the anthelminthic activity of pyrazolines surpasses criteria established by the WHO.
# (§1) Adult schistosomes (BH strain) were isolated from infected mice and cultured in RPMI medium + 10% fetal calf serum and 100 U/mL penicillin and 100 μg/mL streptomycin in a 24-well culture plate (Corning, New York, NY, USA) containing one pair of parasites per well at 37 °C and 5% CO2 (Panasonic Healthcare, Sakata, Oizumi-machi, Japan)[38],[39]. For antischistosomal assay, compounds were dissolved in DMSO (final concentration of 0.5% v/v). Each drug concentration was tested at least in triplicate, and the experiments were repeated three times. The initial concentration of the pyrazolines and praziquantel was 50 μM and 3 μM, respectively, which was serially diluted in medium with twofold dilutions to give six concentrations[40],[41]. The negative control worms were assayed in RPMI 1640 medium and RPMI 1640 with 0.5% DMSO. Parasites were monitored daily at 24, 48 and 72 h under a stereomicroscope (Leica Microsystems EZ4E, Wetzlar, Germany) and an inverted microscope (BEL Engineering INV 100, Monza, MB, Italy). Egg production was evaluated daily as previously described. Parasite viability was averaged and 50% effective concentrations (EC50) were calculated using GraphPad Prism software[24],[43].
# [1] = tested on: paired adult schistosomes (S. mansoni); test: Egg production (fecundity) of paired adult schistosomes in vitro; type: cell-based, Schistosoma mansoni; settings: sublethal concentrations (6.25 μM for 16, 12.5 μM for 19 and 23), compared to control
# Procedure: Based on antischistosomal properties of pyrazolines 16, 18, 19, 21, 22 and 23, the ability of these six compounds to affect fecundity (egg production) was subsequently measured. […] To further investigate this effect on schistosome fecundity, parasites were tested using sublethal concentrations (3.5 μM for compound 22, 6.25 μM for compound 16, and 12.5 μM for compounds 18, 19, 21, and 23).
# as §1
# Vero cells = test: Cytotoxicity assay (MTT), Vero cells; type: cell-based, African green monkey; settings: CC50 (Vero) divided by EC50 (S. mansoni)
# Procedure: (§2) The selectivity index (SI) of a compound is a widely accepted parameter used to express a drug’s in vitro efficacy. Therefore, the cytotoxic effect of these six pyrazolines (16, 18, 19, 21, 22 and 23) was evaluated using a monkey cell line (Vero) and a human cell line (SH-SY5Y). Cells were incubated with each compound at a range of concentrations for determination of cytotoxic concentrations 50% (CC50). […] With the EC50 data collected for schistosomes as well as the CC50 for animal and human cells, the selectivity indices (SI) were determined for each of the pyrazolines tested (Table 1). […] A SI value ≥ 10 is in accordance with the criteria defined by the WHO for antiparasitic hits, leads, and drug candidates. […] Comparatively, the SI values achieved with pyrazolines exceeded those obtained for other relevant heterocyclic compounds with antischistosomal properties[21],[22]. Although the SI values recorded for pyrazolines were more than 10 times below those for the reference drug praziquantel, a SI value ≥ 10 fulfills and exceeds the criteria established by the WHO for potential compounds as anthelmintic agents. The cytotoxicity of compounds was tested against Vero cells (African green monkey kidney cells obtained from the American Type Culture Collection, ATCC; Manassas, VA, USA) and SH-SY5Y cells (human neuroblastoma obtained from Banco de Células do Rio de Janeiro, BCRJ, RJ, Brazil). Cells was cultured in DMEM medium supplemented with 10% fetal calf serum, penicillin (100 U/mL) and streptomycin (100 µg/mL) and 2 mM of L-glutamine at 37 °C and in a 5% CO2 humidified incubator (Panasonic). The DMEM contained 1 or 4 mg/mL glucose for Vero and SH-SY5Y cells, respectively. Cytotoxicity assay was performed as previously described[25],[26]. Briefly, cells were seeded in 96-well plates (Corning) in DMEM medium and incubated with twofold serial drug starting at 200 μM following a 24 h adhesion period at 37 °C in 5% CO2. After 72 h, MTT was added and incubation was continued for another 3 h. The plate was then read using spectrophotometer (Epoch Microplate Spectrophotometer, BioTek Instruments, Winooski, VT, USA) at 595 nm. The assay was conducted in duplicate and repeated three times. Values were expressed as percentage of the control and 50% cytotoxic concentration (CC50) values were calculated. The selectivity indices (SI) of tested compounds were calculated by dividing CC50 values obtained on mammalian cells with EC50 values determined on S. mansoni.
# [2] = Cytotoxicity assay (MTT), Vero cells; type: cell-based, African green monkey; settings: African green monkey, Vero cells (African green monkey kidney cells); Vero cells, 72 h, MTT; brackets = 95% confidence interval
# Procedure: as §2
# SH-SY5Y cells = test: Cytotoxicity assay (MTT), SH-SY5Y cells; type: cell-based, human; settings: CC50 (SH-SY5Y) divided by EC50 (S. mansoni)
# Procedure: as §2
# [3] = Cytotoxicity assay (MTT), SH-SY5Y cells; type: cell-based, human; settings: human, SH-SY5Y cells (human neuroblastoma); SH-SY5Y cells, 72 h, MTT
# Procedure: as §2
compound,measurement,setting,value
"CCCCOc1ccc(C2CC(c3ccccc3)=NN2C(N)=O)cc1 (stereo not drawn) [Compound 15, 5-(4-butoxyphenyl)-4,5-dihydro-3-phenylpyrazole-1-carboxamide]",EC50,S. mansoni adult worm; Schistosoma mansoni,> 50 µM
"CCCCCCCCCOc1ccc(C2CC(c3ccccc3)=NN2C(N)=O)cc1 (stereo not drawn) [Compound 16, 4,5-dihydro-5-(4-(nonyloxy)phenyl)-3-phenylpyrazole-1-carboxamide]",Reduction in the number of eggs,[1],30–70%
same,Death of all worms within 24 h,S. mansoni adult worm,death of all worms
same,Time until all parasites were dead,S. mansoni adult worm,≤ 24 h
same,Antiparasitic activity in initial screen,S. mansoni adult worm,showed antiparasitic activity
same,EC50,S. mansoni adult worm; Schistosoma mansoni,< 20 µM
same,EC50,S. mansoni adult worm,13.8 µM
same,Monkey cells SI (selectivity index),Vero cells,11.2
same,CC50 at 72 h,[2],155 µM
same,Human cells SI (selectivity index),SH-SY5Y cells,> 14.5
same,CC50 at 72 h,[3],> 200 µM
"CCCCCCCCCCCCOc1ccc(C2CC(c3ccccc3)=NN2C(N)=O)cc1 (stereo not drawn) [Compound 17, 5-(4-(dodecyloxy)phenyl)-4,5-dihydro-3-phenylpyrazole-1-carboxamide]",melting point,,94.8 to 97.9 °C
same,EC50,S. mansoni adult worm; Schistosoma mansoni,> 50 µM
"CCCCCCCCCCOc1ccc(C2CC(c3ccc(F)cc3)=NN2C(N)=O)cc1 (stereo not drawn) [Compound 18, 5-(4-(decyloxy)phenyl)-3-(4-fluorophenyl)-4,5-dihydropyrazole-1-carboxamide]",Time until all parasites were dead,S. mansoni adult worm,≤ 24 h
same,Antiparasitic activity in initial screen,S. mansoni adult worm,showed antiparasitic activity
same,EC50,S. mansoni adult worm; Schistosoma mansoni,< 20 µM
same,EC50,S. mansoni adult worm,14.6 µM
same,Monkey cells SI (selectivity index),Vero cells,10.9
same,CC50 at 72 h,[2],159 µM
same,Human cells SI (selectivity index),SH-SY5Y cells,> 13.7
same,CC50 at 72 h,[3],> 200 µM
"Cc1ccc(C2CC(c3ccc(F)cc3)=NN2C(N)=O)cc1 (stereo not drawn) [Compound 19, 3-(4-fluorophenyl)-4,5-dihydro-5-p-tolylpyrazole-1-carboxamide]",Reduction in the number of eggs,[1],30–70%
same,Time until all parasites were dead,S. mansoni adult worm,≤ 24 h
same,Antiparasitic activity in initial screen,S. mansoni adult worm,showed antiparasitic activity
same,EC50,S. mansoni adult worm; Schistosoma mansoni,< 20 µM
same,EC50,S. mansoni adult worm,17.4 µM
same,Monkey cells SI (selectivity index),Vero cells,9.7
same,CC50 at 72 h,[2],169 µM
same,Human cells SI (selectivity index),SH-SY5Y cells,> 11.5
same,CC50 at 72 h,[3],> 200 µM
"NC(=O)N1N=C(c2ccc(F)cc2)CC1c1ccc(Br)cc1 (stereo not drawn) [Compound 20, 5-(4-bromophenyl)-3-(4-fluorophenyl)-4,5-dihydropyrazole-1-carboxamide]",melting point,,176 to 178 °C
same,EC50,S. mansoni adult worm; Schistosoma mansoni,> 50 µM
"CN(C)c1ccc(C2CC(c3ccc(F)cc3)=NN2C(N)=O)cc1 (stereo not drawn) [Compound 21, 5-(4-(dimethylamino)phenyl)-3-(4-fluorophenyl)-4,5-dihydropyrazole-1-carboxamide]",Time until all parasites were dead,S. mansoni adult worm,48 h
same,Antiparasitic activity in initial screen,S. mansoni adult worm,showed antiparasitic activity
same,EC50,S. mansoni adult worm; Schistosoma mansoni,< 20 µM
same,EC50,S. mansoni adult worm,19.8 µM
same,Monkey cells SI (selectivity index),Vero cells,> 10.1
same,CC50 at 72 h,[2],> 200 µM
same,Human cells SI (selectivity index),SH-SY5Y cells,> 10.1
same,CC50 at 72 h,[3],> 200 µM
"NC(=O)N1N=C(c2ccc(F)cc2)CC1c1ccc(Cl)cc1 (stereo not drawn) [Compound 22, 5-(4-chlorophenyl)-3-(4-fluorophenyl)-4,5-dihydropyrazole-1-carboxamide]",Death of all worms within 24 h,S. mansoni adult worm,death of all worms
same,Time until all parasites were dead,S. mansoni adult worm,≤ 24 h
same,Antiparasitic activity in initial screen,S. mansoni adult worm,showed antiparasitic activity
same,EC50,S. mansoni adult worm; Schistosoma mansoni,< 10 µM
same,EC50,S. mansoni adult worm,6.2 µM
same,Monkey cells SI (selectivity index),Vero cells,21.6
same,CC50 at 72 h,[2],134 µM
same,Human cells SI (selectivity index),SH-SY5Y cells,> 32.2
same,CC50 at 72 h,[3],> 200 µM
"CCCCCCCCOc1ccc(C2CC(c3ccccc3)=NN2C(N)=S)cc1 (stereo not drawn) [Compound 24, 4,5-dihydro-5-(4-(octyloxy)phenyl)-3-phenylpyrazole-1-carbothioamide]",melting point,,90.4 to 92.1 °C
same,EC50,S. mansoni adult worm; Schistosoma mansoni,> 50 µM
"CCCCCCCCCOc1ccc(C2CC(c3ccccc3)=NN2C(N)=S)cc1 (stereo not drawn) [Compound 25, 4,5-dihydro-5-(4-(nonyloxy)phenyl)-3-phenylpyrazole-1-carbothioamide]",melting point,,86.4 to 88.2 °C
same,EC50,S. mansoni adult worm; Schistosoma mansoni,> 50 µM
"CCCCCCCCCCOc1ccc(C2CC(c3ccccc3)=NN2C(N)=S)cc1 (stereo not drawn) [Compound 26, 5-(4-(decyloxy)phenyl)-4,5-dihydro-3-phenylpyrazole-1-carbothioamide]",melting point,,96.2 to 98.9 °C
same,EC50,S. mansoni adult worm; Schistosoma mansoni,> 50 µM
"CCCCCCCCCCCCOc1ccc(C2CC(c3ccccc3)=NN2C(N)=S)cc1 (stereo not drawn) [Compound 27, 5-(4-(dodecyloxy)phenyl)-4,5-dihydro-3-phenylpyrazole-1-carbothioamide]",melting point,,94.2 °C
same,EC50,S. mansoni adult worm; Schistosoma mansoni,> 50 µM
"CCCCCCCCCCCCCCOc1ccc(C2CC(c3ccccc3)=NN2C(N)=S)cc1 (stereo not drawn) [Compound 28, 4,5-dihydro-3-phenyl-5-(4-(tetradecyloxy)phenyl)pyrazole-1-carbothioamide]",melting point,,97 to 99.2 °C
same,EC50,S. mansoni adult worm; Schistosoma mansoni,> 50 µM
"CCCCCCCCCOc1ccc(C2CC(c3ccc(F)cc3)=NN2C(N)=S)cc1 (stereo not drawn) [Compound 29, 3-(4-fluorophenyl)-4,5-dihydro-5-(4-(nonyloxy)phenyl)pyrazole-1-carbothioamide]",melting point,,113 to 114 °C
same,EC50,S. mansoni adult worm; Schistosoma mansoni,> 50 µM
"CCCCCCCCCCOc1ccc(C2CC(c3ccc(F)cc3)=NN2C(N)=S)cc1 (stereo not drawn) [Compound 30, 3-(4-fluorophenyl)-4,5-dihydro-5-(4-(decyloxy)phenyl)pyrazole-1-carbothioamide]",melting point,,105.5 to 108.4 °C
same,EC50,S. mansoni adult worm; Schistosoma mansoni,> 50 µM
"CCCCCCCCCCCCCCOc1ccc(C2CC(c3ccc(F)cc3)=NN2C(N)=S)cc1 (stereo not drawn) [Compound 31, 3-(4-fluorophenyl)-4,5-dihydro-5-(4-(tetradecyloxy)phenyl)pyrazole-1-carbothioamide]",melting point,,92.2 to 94.6 °C
same,EC50,S. mansoni adult worm; Schistosoma mansoni,> 50 µM
"Cc1ccc(-c2cc(-c3ccc(F)cc3)[nH]n2)cc1 [Compound 32, 5-(4-fluorophenyl)-3-(4-methylphenyl)-1H-pyrazole]",EC50,S. mansoni adult worm; Schistosoma mansoni,> 50 µM
"Fc1ccc(-c2cc(-c3ccc(Br)cc3)n[nH]2)cc1 [Compound 33, 3-(4-bromophenyl)-5-(4-fluorophenyl)-1H-pyrazole]",melting point,,217 to 219 °C
same,EC50,S. mansoni adult worm; Schistosoma mansoni,> 50 µM
"Fc1ccc(-c2cc(-c3ccc(Cl)cc3)n[nH]2)cc1 [Compound 34, 3-(4-chlorophenyl)-5-(4-fluorophenyl)-1H-pyrazole]",EC50,S. mansoni adult worm; Schistosoma mansoni,> 50 µM
"O=C(C1CCCCC1)N1CC(=O)N2CCc3ccccc3C2C1 (stereo not drawn) [PZQ, praziquantel, reference compound]",EC50,S. mansoni adult worm; Schistosoma mansoni,0.93 µM
same,CC50 at 72 h,[2],> 200 µM
same,CC50 at 72 h,[3],> 200 µM
